A short description of this data set: activity coefficient (dimensionless); of the first substance listed, at infinite dilution; xn = mol fraction of the nth substance listed. The following applies: 101 kPa, Liquid, Chromatography, x1 = 0.

Numbers after ± are expanded uncertainties.

For the compound `CCCCCC` [hexane] + CCCCCCOCn1cc[n+](COCCCCCC)c1.O=S(=O)([N-]S(=O)(=O)C(F)(F)F)C(F)(F)F, the activity coefficient (298.15 K) was determined as 3.22 ± 0.22; the activity coefficient (308.15 K) is 3.13 ± 0.21; the activity coefficient (318.15 K) came to 3.04 ± 0.21; the activity coefficient (328.15 K) turned out to be 2.97 ± 0.2; the activity coefficient (338.15 K) came to 2.9 ± 0.2; the activity coefficient (348.15 K) is 2.83 ± 0.19. The activity coefficient reads like this: (358.15 K) 2.77 ± 0.19; (368.15 K) 2.72 ± 0.19.
For `CO` [methanol] + CCCCCCOCn1cc[n+](C)c1.O=S(=O)([N-]S(=O)(=O)C(F)(F)F)C(F)(F)F, the activity coefficient is, setting by setting: (298.15 K) 1.36 ± 0.09; (308.15 K) 1.24 ± 0.08; (318.15 K) 1.13 ± 0.07; (328.15 K) 1.04 ± 0.07; (338.15 K) 0.959 ± 0.06; (348.15 K) 0.894 ± 0.057. The activity coefficient came out at 0.832 ± 0.054 (358.15 K) and 0.775 ± 0.051 (368.15 K).
Turning to `CO` [methanol] + CCCCCCOCn1cc[n+](COCCCCCC)c1.O=S(=O)([N-]S(=O)(=O)C(F)(F)F)C(F)(F)F, the activity coefficient runs as follows: (298.15 K) 1.17 ± 0.07; (308.15 K) 1.06 ± 0.067; (318.15 K) 0.978 ± 0.061; (328.15 K) 0.9 ± 0.057; (338.15 K) 0.834 ± 0.054; (348.15 K) 0.776 ± 0.051. Moreover, the activity coefficient (358.15 K) is 0.725 ± 0.048 and the activity coefficient (368.15 K) was determined as 0.681 ± 0.046.
As for `CCCCCCCCC` [nonane] + CCCCCCOCn1cc[n+](C)c1.O=S(=O)([N-]S(=O)(=O)C(F)(F)F)C(F)(F)F, the activity coefficient runs as follows: (298.15 K) 17.8 ± 1.2; (308.15 K) 16.6 ± 1.1; (318.15 K) 15.5 ± 1.1; (328.15 K) 14.6 ± 1; (338.15 K) 13.8 ± 0.9; (348.15 K) 13.2 ± 0.9. Also, the activity coefficient (358.15 K) worked out at 12.4 ± 0.8 and the activity coefficient (368.15 K) worked out at 11.9 ± 0.8.
With `CCCCCCCCC` [nonane] + CCCCCCOCn1cc[n+](COCCCCCC)c1.O=S(=O)([N-]S(=O)(=O)C(F)(F)F)C(F)(F)F, the activity coefficient reads like this: (298.15 K) 5.93 ± 0.4; (308.15 K) 5.67 ± 0.39; (318.15 K) 5.42 ± 0.37; (328.15 K) 5.22 ± 0.36; (338.15 K) 5.01 ± 0.34; (348.15 K) 4.84 ± 0.33. Further, the activity coefficient runs as follows: (358.15 K) 4.68 ± 0.32; (368.15 K) 4.53 ± 0.31.
For `C=CCCCCCC` [oct-1-ene] + CCCCCCOCn1cc[n+](C)c1.O=S(=O)([N-]S(=O)(=O)C(F)(F)F)C(F)(F)F, the activity coefficient reads like this: (298.15 K) 7.97 ± 0.54; (308.15 K) 7.67 ± 0.52; (318.15 K) 7.39 ± 0.5; (328.15 K) 7.12 ± 0.49; (338.15 K) 6.89 ± 0.47; (348.15 K) 6.69 ± 0.46. Also, the activity coefficient (358.15 K) stood at 6.5 ± 0.44 and the activity coefficient (368.15 K) came to 6.34 ± 0.43.
As to `C=CCCCCCC` [oct-1-ene] + CCCCCCOCn1cc[n+](COCCCCCC)c1.O=S(=O)([N-]S(=O)(=O)C(F)(F)F)C(F)(F)F, the activity coefficient is 3.28 ± 0.22 (298.15 K); 3.2 ± 0.22 (308.15 K); 3.12 ± 0.21 (318.15 K); 3.05 ± 0.21 (328.15 K); 2.99 ± 0.2 (338.15 K); 2.93 ± 0.2 (348.15 K). Moreover, the activity coefficient by setting is: (358.15 K) 2.87 ± 0.2; (368.15 K) 2.83 ± 0.19.
Regarding `CCCCCCCC` [octane] + CCCCCCOCn1cc[n+](C)c1.O=S(=O)([N-]S(=O)(=O)C(F)(F)F)C(F)(F)F, the activity coefficient was 13.6 ± 0.9 (298.15 K); 12.8 ± 0.9 (308.15 K); 12.1 ± 0.8 (318.15 K); 11.5 ± 0.8 (328.15 K); 10.9 ± 0.7 (338.15 K); 10.4 ± 0.7 (348.15 K). Further, the activity coefficient by setting is: (358.15 K) 10 ± 0.7; (368.15 K) 9.51 ± 0.65.
On to `CCCCCCCC` [octane] + CCCCCCOCn1cc[n+](COCCCCCC)c1.O=S(=O)([N-]S(=O)(=O)C(F)(F)F)C(F)(F)F, for which the activity coefficient was 4.8 ± 0.33 (298.15 K); 4.62 ± 0.31 (308.15 K); 4.45 ± 0.3 (318.15 K); 4.3 ± 0.29 (328.15 K); 4.16 ± 0.28 (338.15 K); 4.03 ± 0.27 (348.15 K). The activity coefficient was 3.92 ± 0.27 (358.15 K) and 3.81 ± 0.26 (368.15 K).
Turning to `CCCCC` [pentane] + CCCCCCOCn1cc[n+](C)c1.O=S(=O)([N-]S(=O)(=O)C(F)(F)F)C(F)(F)F, the activity coefficient (298.15 K) is 7.34 ± 0.5; the activity coefficient (308.15 K) worked out at 6.93 ± 0.47; the activity coefficient (318.15 K) came to 6.54 ± 0.45; the activity coefficient (328.15 K) was found to be 6.25 ± 0.43; the activity coefficient (338.15 K) was 5.92 ± 0.4; the activity coefficient (348.15 K) was determined as 5.68 ± 0.39. Also, the activity coefficient (358.15 K) is 5.43 ± 0.37 and the activity coefficient (368.15 K) came out at 5.21 ± 0.36.
`CCCCC` [pentane] + CCCCCCOCn1cc[n+](COCCCCCC)c1.O=S(=O)([N-]S(=O)(=O)C(F)(F)F)C(F)(F)F: the activity coefficient runs as follows: (298.15 K) 2.78 ± 0.19; (308.15 K) 2.69 ± 0.18; (318.15 K) 2.62 ± 0.18; (328.15 K) 2.54 ± 0.17; (338.15 K) 2.48 ± 0.17; (348.15 K) 2.43 ± 0.17. Also, the activity coefficient is, setting by setting: (358.15 K) 2.38 ± 0.16; (368.15 K) 2.33 ± 0.16.
Regarding `CCCO` [propan-1-ol] + CCCCCCOCn1cc[n+](C)c1.O=S(=O)([N-]S(=O)(=O)C(F)(F)F)C(F)(F)F, the activity coefficient reads like this: (298.15 K) 1.83 ± 0.12; (308.15 K) 1.64 ± 0.11; (318.15 K) 1.49 ± 0.1; (328.15 K) 1.36 ± 0.09; (338.15 K) 1.24 ± 0.08; (348.15 K) 1.15 ± 0.07. For the same compound, the activity coefficient came out at 1.07 ± 0.07 (358.15 K) and 0.989 ± 0.062 (368.15 K).
Regarding `CCCO` [propan-1-ol] + CCCCCCOCn1cc[n+](COCCCCCC)c1.O=S(=O)([N-]S(=O)(=O)C(F)(F)F)C(F)(F)F, the activity coefficient reads like this: (298.15 K) 1.31 ± 0.09; (308.15 K) 1.19 ± 0.08; (318.15 K) 1.09 ± 0.07; (328.15 K) 1 ± 0.063; (338.15 K) 0.929 ± 0.059; (348.15 K) 0.861 ± 0.055. For the same compound, the activity coefficient turned out to be 0.803 ± 0.052 (358.15 K) and 0.752 ± 0.049 (368.15 K).
As to `C1CCOC1` [tetrahydrofuran] + CCCCCCOCn1cc[n+](C)c1.O=S(=O)([N-]S(=O)(=O)C(F)(F)F)C(F)(F)F, the activity coefficient came out at 0.424 ± 0.035 (298.15 K); 0.438 ± 0.035 (308.15 K); 0.452 ± 0.036 (318.15 K); 0.466 ± 0.036 (328.15 K); 0.479 ± 0.037 (338.15 K); 0.491 ± 0.037 (348.15 K). Besides, the activity coefficient is, setting by setting: (358.15 K) 0.504 ± 0.038; (368.15 K) 0.515 ± 0.038.
With `C1CCOC1` [tetrahydrofuran] + CCCCCCOCn1cc[n+](COCCCCCC)c1.O=S(=O)([N-]S(=O)(=O)C(F)(F)F)C(F)(F)F, the activity coefficient (298.15 K) turned out to be 0.294 ± 0.031; the activity coefficient (308.15 K) worked out at 0.304 ± 0.031; the activity coefficient (318.15 K) is 0.314 ± 0.031; the activity coefficient (328.15 K) is 0.324 ± 0.032; the activity coefficient (338.15 K) was found to be 0.333 ± 0.032; the activity coefficient (348.15 K) is 0.343 ± 0.032. For the same compound, the activity coefficient is, setting by setting: (358.15 K) 0.352 ± 0.032; (368.15 K) 0.36 ± 0.033.
For the compound `c1ccsc1` [thiophene] + CCCCCCOCn1cc[n+](C)c1.O=S(=O)([N-]S(=O)(=O)C(F)(F)F)C(F)(F)F, the activity coefficient (298.15 K) was determined as 0.743 ± 0.049; the activity coefficient (308.15 K) worked out at 0.744 ± 0.049; the activity coefficient (318.15 K) turned out to be 0.744 ± 0.049; the activity coefficient (328.15 K) turned out to be 0.745 ± 0.049; the activity coefficient (338.15 K) was 0.746 ± 0.049; the activity coefficient (348.15 K) stood at 0.746 ± 0.049. Further, the activity coefficient (358.15 K) is 0.747 ± 0.049 and the activity coefficient (368.15 K) was found to be 0.747 ± 0.049.
For `c1ccsc1` [thiophene] + CCCCCCOCn1cc[n+](COCCCCCC)c1.O=S(=O)([N-]S(=O)(=O)C(F)(F)F)C(F)(F)F, the activity coefficient stood at 0.578 ± 0.041 (298.15 K); 0.575 ± 0.041 (308.15 K); 0.571 ± 0.041 (318.15 K); 0.568 ± 0.041 (328.15 K); 0.565 ± 0.041 (338.15 K); 0.562 ± 0.04 (348.15 K). The activity coefficient came to 0.559 ± 0.04 (358.15 K) and 0.557 ± 0.04 (368.15 K).
For `Cc1ccccc1` [toluene] + CCCCCCOCn1cc[n+](C)c1.O=S(=O)([N-]S(=O)(=O)C(F)(F)F)C(F)(F)F, the activity coefficient (298.15 K) was found to be 1.05 ± 0.066; the activity coefficient (308.15 K) stood at 1.06 ± 0.067; the activity coefficient (318.15 K) was 1.07 ± 0.068; the activity coefficient (328.15 K) turned out to be 1.08 ± 0.068; the activity coefficient (338.15 K) was 1.09 ± 0.069; the activity coefficient (348.15 K) worked out at 1.1 ± 0.069. In addition, the activity coefficient (358.15 K) was determined as 1.1 ± 0.07 and the activity coefficient (368.15 K) was 1.11 ± 0.07.
As for `Cc1ccccc1` [toluene] + CCCCCCOCn1cc[n+](COCCCCCC)c1.O=S(=O)([N-]S(=O)(=O)C(F)(F)F)C(F)(F)F, the activity coefficient runs as follows: (308.15 K) 0.743 ± 0.049; (318.15 K) 0.746 ± 0.049; (328.15 K) 0.749 ± 0.049; (338.15 K) 0.753 ± 0.05; (348.15 K) 0.756 ± 0.05; (358.15 K) 0.758 ± 0.05. Besides, the activity coefficient (368.15 K) came to 0.761 ± 0.05.
Turning to `O` [water] + CCCCCCOCn1cc[n+](C)c1.O=S(=O)([N-]S(=O)(=O)C(F)(F)F)C(F)(F)F, the activity coefficient (298.15 K) is 4.37 ± 0.3; the activity coefficient (308.15 K) came out at 3.81 ± 0.26; the activity coefficient (318.15 K) worked out at 3.32 ± 0.23; the activity coefficient (328.15 K) is 2.9 ± 0.2; the activity coefficient (338.15 K) was 2.57 ± 0.17; the activity coefficient (348.15 K) turned out to be 2.28 ± 0.16. In addition, where the note is “358.15 K”, the activity coefficient amounted to 2.04 ± 0.14.

Values taken from the NIST ThermoML archive (doi:10.1016/j.fluid.2009.08.017).
